Reference: ChEMBL document CHEMBL3421568, “Discovery and preliminary evaluation of 2-aminobenzamide and hydroxamate derivatives containing 1,2,4-oxadiazole moiety as potent histone deacetylase inhibitors” (Eur J Med Chem, 2015)

How the values were obtained:
cells [1] = format: functional, cell-based; details: Homo sapiens, U-937, 72 h
Description: Antiproliferative activity against human U937 cells assessed as inhibition of cell growth after 72 hrs by MTT-based assay

Histone deacetylase 1 = Histone deacetylase 1 (Homo sapiens, UniProt Q13547); test: Inhibition of recombinant HDAC1 (unknown origin) using fluorogenic substrate Boc-Lys (acetyl)-AMC after 20 mins by homogeneous fluorescence release assay
Sequence of Histone deacetylase 1 (Q13547 whole entry): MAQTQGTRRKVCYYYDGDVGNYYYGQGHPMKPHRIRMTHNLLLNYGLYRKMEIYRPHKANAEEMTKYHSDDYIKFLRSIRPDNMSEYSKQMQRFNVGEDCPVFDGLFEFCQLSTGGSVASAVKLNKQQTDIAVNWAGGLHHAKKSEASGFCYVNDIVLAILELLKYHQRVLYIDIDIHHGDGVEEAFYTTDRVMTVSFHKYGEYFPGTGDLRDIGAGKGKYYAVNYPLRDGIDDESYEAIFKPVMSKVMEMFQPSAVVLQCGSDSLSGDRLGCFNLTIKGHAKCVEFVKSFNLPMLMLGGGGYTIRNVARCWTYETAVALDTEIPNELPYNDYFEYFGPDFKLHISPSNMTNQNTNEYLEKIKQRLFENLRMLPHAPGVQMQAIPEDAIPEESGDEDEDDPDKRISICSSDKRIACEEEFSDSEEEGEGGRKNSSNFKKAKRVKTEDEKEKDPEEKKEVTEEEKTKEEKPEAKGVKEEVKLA

MDA-MB-231 = test: cells; format: functional, cell-based; details: Homo sapiens, MDA-MB-231, 72 h
Description: Antiproliferative activity against human MDA-MB-231 cells assessed as inhibition of cell growth after 72 hrs by MTT-based assay

Histone deacetylase 2 = Histone deacetylase 2 (Homo sapiens, UniProt Q92769); test: Inhibition of recombinant HDAC2 (unknown origin) using fluorogenic substrate Boc-Lys (acetyl)-AMC after 20 mins by homogeneous fluorescence release assay
Sequence of Histone deacetylase 2 (Q92769 whole entry): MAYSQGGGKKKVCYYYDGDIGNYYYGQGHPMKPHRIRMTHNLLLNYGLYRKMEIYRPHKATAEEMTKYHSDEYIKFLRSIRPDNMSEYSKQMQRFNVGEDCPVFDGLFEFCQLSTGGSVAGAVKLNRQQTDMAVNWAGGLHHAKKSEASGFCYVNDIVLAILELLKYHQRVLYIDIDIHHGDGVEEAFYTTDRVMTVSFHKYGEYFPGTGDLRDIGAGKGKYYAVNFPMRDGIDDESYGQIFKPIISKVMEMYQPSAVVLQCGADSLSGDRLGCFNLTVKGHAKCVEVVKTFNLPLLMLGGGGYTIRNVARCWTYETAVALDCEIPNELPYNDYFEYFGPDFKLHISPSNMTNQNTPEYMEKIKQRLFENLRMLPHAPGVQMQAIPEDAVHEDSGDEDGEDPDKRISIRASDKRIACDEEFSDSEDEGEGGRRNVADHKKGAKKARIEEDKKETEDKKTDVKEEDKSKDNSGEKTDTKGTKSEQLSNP

cells [2] = format: functional, cell-based; details: Homo sapiens, HCT-116, 72 h
Description: Antiproliferative activity against human HCT116 cells assessed as inhibition of cell growth after 72 hrs by MTT-based assay

NCI-H661 = test: Antiproliferative activity against human NCI-H661 cells assessed as inhibition of cell growth after 72 hrs by MTT-based assay; format: functional; details: NCI-H661, 72 h
A549 = test: Antiproliferative activity against human A549 cells assessed as inhibition of cell growth after 72 hrs by MTT-based assay; format: functional; details: A549, 72 h
Histone deacetylase 8 = molecular target: T1, Histone deacetylase 8 (Homo sapiens, UniProt Q9BY41); test: Inhibition of recombinant HDAC8 (unknown origin) using fluorogenic substrate Boc-Lys (acetyl)-AMC after 20 mins by homogeneous fluorescence release assay
T1 sequence (Q9BY41 whole entry): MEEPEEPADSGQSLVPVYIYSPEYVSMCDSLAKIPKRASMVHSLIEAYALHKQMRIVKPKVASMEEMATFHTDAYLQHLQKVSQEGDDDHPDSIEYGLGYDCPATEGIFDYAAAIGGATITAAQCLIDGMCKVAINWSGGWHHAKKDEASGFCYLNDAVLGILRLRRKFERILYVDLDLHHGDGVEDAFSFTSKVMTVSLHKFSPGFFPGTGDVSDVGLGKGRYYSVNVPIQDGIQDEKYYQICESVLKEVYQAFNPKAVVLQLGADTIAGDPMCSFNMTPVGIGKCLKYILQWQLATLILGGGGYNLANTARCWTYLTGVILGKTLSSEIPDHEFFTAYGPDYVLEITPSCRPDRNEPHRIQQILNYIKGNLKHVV

| SMILES | IC50 (cells [1]) | IC50 (Histone deacetylase 1) | IC50 (MDA-MB-231) | IC50 (Histone deacetylase 2) | IC50 (cells [2]) | IC50 (NCI-H661) | IC50 (A549) | IC50 (Histone deacetylase 8) |
| --- | --- | --- | --- | --- | --- | --- | --- | --- |
| Nc1ccccc1NC(=O)c1ccc(CNCc2nc(-c3ccc(Cl)cc3)no2)cc1 | 0.43 µM | 0.09 µM | 5.12 µM | 0.43 µM | 6.81 µM | 8 µM | 13.5 µM | > 10 µM |
| Nc1ccccc1NC(=O)c1ccc(CNCc2nc(-c3cccs3)no2)cc1 | 5.96 µM | 3.85 µM | 10.3 µM | 4.39 µM | 27.2 µM | 35.8 µM | > 100 µM | > 10 µM |
| Cc1ccc(-c2noc(CNCc3ccc(C(=O)NO)cc3)n2)cc1 | 7.83 µM | 6.86 µM | 15.4 µM | > 10 µM | 27.8 µM | > 100 µM | > 100 µM | 1.25 µM |
| COc1ccc(-c2noc(CNCc3ccc(C(=O)NO)cc3)n2)cc1 | 3.45 µM | 8.32 µM | 8.93 µM | > 10 µM | 18.6 µM | > 100 µM | > 100 µM | 0.86 µM |
| O=C(NO)c1ccc(CNCc2nc(-c3ccc(C(F)(F)F)cc3)no2)cc1 | 8.05 µM | 9.63 µM | 12.3 µM | > 10 µM | 43.1 µM | > 100 µM | > 100 µM | 1.36 µM |
| O=C(NO)c1ccc(CNCc2nc(-c3ccc(F)cc3)no2)cc1 | 2.95 µM | 3.53 µM | 9.12 µM | 7.69 µM | 17.8 µM | > 100 µM | > 100 µM | 0.23 µM |
| O=C(NO)c1ccc(CNCc2nc(-c3cccs3)no2)cc1 | 10.7 µM | > 10 µM | 23.9 µM | > 10 µM | > 100 µM | > 100 µM | > 100 µM | 8.26 µM |
| Nc1ccccc1NC(=O)c1ccc(CNC(=O)OCc2cccnc2)cc1 [ENTINOSTAT] | 0.55 µM | – | 4.63 µM | – | 0.78 µM | 2.19 µM | 5.41 µM | – |

Second part, the compound after the results:

| IC50 (cells [1]) | IC50 (Histone deacetylase 1) | IC50 (MDA-MB-231) | IC50 (Histone deacetylase 2) | IC50 (cells [2]) | IC50 (NCI-H661) | IC50 (A549) | IC50 (Histone deacetylase 8) | SMILES |
| --- | --- | --- | --- | --- | --- | --- | --- | --- |
| 1.63 µM | 0.28 µM | 7.69 µM | 0.53 µM | 8.63 µM | 11.8 µM | 10.8 µM | > 10 µM | Nc1ccccc1NC(=O)c1ccc(CNCc2nc(-c3ccccc3)no2)cc1 |
| 0.97 µM | 0.21 µM | 5.81 µM | 0.56 µM | 6.55 µM | 7.39 µM | 9.81 µM | > 10 µM | Cc1ccc(-c2noc(CNCc3ccc(C(=O)Nc4ccccc4N)cc3)n2)cc1 |
| 1.09 µM | 0.18 µM | 5.53 µM | 0.29 µM | 4.37 µM | 5.77 µM | 7.95 µM | > 10 µM | COc1ccc(-c2noc(CNCc3ccc(C(=O)Nc4ccccc4N)cc3)n2)cc1 |
| 2.58 µM | 2.75 µM | 6.87 µM | 5.93 µM | 19.7 µM | 23.5 µM | 100 µM | > 10 µM | Nc1ccccc1NC(=O)c1ccc(CNCc2nc(-c3ccc(C(F)(F)F)cc3)no2)cc1 |
| 0.52 µM | 0.06 µM | 3.18 µM | 0.15 µM | 2.33 µM | 4.73 µM | 6.39 µM | > 10 µM | Nc1ccccc1NC(=O)c1ccc(CNCc2nc(-c3ccc([N+](=O)[O-])cc3)no2)cc1 |
| 1.25 µM | 0.11 µM | 2.95 µM | 0.28 µM | 3.51 µM | 4.36 µM | 10.7 µM | > 10 µM | Nc1ccccc1NC(=O)c1ccc(CNCc2nc(-c3ccc(F)cc3)no2)cc1 |
| 11 µM | 5.26 µM | 21.2 µM | 8.37 µM | 43.6 µM | 100 µM | > 100 µM | > 10 µM | Nc1ccccc1NC(=O)c1ccc(CNCc2nc(-c3cccnc3)no2)cc1 |
| 0.38 µM | 0.07 µM | 3.57 µM | 0.32 µM | 1.23 µM | 3.33 µM | 7.92 µM | > 10 µM | Nc1ccccc1NC(=O)c1ccc(CNCc2nc(-c3ccccc3Cl)no2)cc1 |
| 7.21 µM | 5.73 µM | 14.7 µM | > 10 µM | 29.3 µM | > 100 µM | > 100 µM | 0.2 µM | O=C(NO)c1ccc(CNCc2nc(-c3ccccc3)no2)cc1 |
| 5.29 µM | 3.85 µM | 10.9 µM | 8.52 µM | 30.2 µM | > 100 µM | > 100 µM | 0.35 µM | O=C(NO)c1ccc(CNCc2nc(-c3ccc(Cl)cc3)no2)cc1 |
| 6.52 µM | 2.67 µM | 9.56 µM | 9.23 µM | 21.9 µM | > 100 µM | > 100 µM | 0.38 µM | O=C(NO)c1ccc(CNCc2nc(-c3ccc([N+](=O)[O-])cc3)no2)cc1 |
| – | – | – | – | – | 0.13 µM | – | – | O=C(CCCCCCC(=O)Nc1ccccc1)NO [VORINOSTAT] |
